Data taken from PubChem BioAssay AID248 (DTP/NCI, 2004).
“And” between values parts separate entries of the source, which are not always exact repeats. Equal values may be shown once. Toxic doses and inconclusive results are not listed. Rule as the data show it: active = T/C of 150% or more; inactive = T/C below 125%.

Tested on: L1210 leukemia ip in BDF1 mice, survival T/C
Test: NCI In Vivo Anticancer Drug Screen. Data for tumor model L1210 Leukemia (intraperitoneal) in B6D2F1 (BDF1) mice
Settings: endpoint: mean survival time, higher = longer survival
Method in brief: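 Antitumor effect is assessed in tumor-bearing animals. Survival in the compound arm is compared with a vehicle-dosed control arm and expressed as their quotient.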

[1] = dose: 100.0 mg/kg/injection, schedule: Q01DX009 (ip), vehicle: carboxymethylcellulose (CMC)

Measured: T/C

CCCCCCCCCCCCCCCC(=O)N(CC)CC
inactive: dose: 100.0 mg/kg/injection, schedule: Q01DX001 (ip), vehicle: carboxymethylcellulose (CMC) 104 % of control | [1] 98 % of control and 104 % of control | dose: 100.0 mg/kg/injection, schedule: Q04DX003 (ip), vehicle: carboxymethylcellulose (CMC) 96 % of control | dose: 200.0 mg/kg/injection, schedule: Q01DX001 (ip), vehicle: carboxymethylcellulose (CMC) 96 % of control | dose: 200.0 mg/kg/injection, schedule: Q01DX009 (ip), vehicle: carboxymethylcellulose (CMC) 96 % of control and 102 % of control | dose: 200.0 mg/kg/injection, schedule: Q04DX003 (ip), vehicle: carboxymethylcellulose (CMC) 92 % of control | dose: 400.0 mg/kg/injection, schedule: Q01DX001 (ip), vehicle: carboxymethylcellulose (CMC) 95 % of control | dose: 400.0 mg/kg/injection, schedule: Q01DX009 (ip), vehicle: carboxymethylcellulose (CMC) 96 % of control and 89 % of control | dose: 400.0 mg/kg/injection, schedule: Q04DX003 (ip), vehicle: carboxymethylcellulose (CMC) 94 % of control

C(C=C(c1ccccc1)c1ccccc1)=C(c1ccccc1)c1ccccc1
inactive: dose: 100.0 mg/kg/injection, schedule: Q04DX003 (ip), vehicle: saline with Tween-80 97 % of control | dose: 200.0 mg/kg/injection, schedule: Q04DX003 (ip), vehicle: saline with Tween-80 90 % of control | dose: 400.0 mg/kg/injection, schedule: Q04DX003 (ip), vehicle: saline with Tween-80 92 % of control

N=C(N)c1ccc(OCCCCCCOc2ccc(C(=N)N)cc2I)cc1
inactive: dose: 6.25 mg/kg/injection, schedule: Q01DX Z (oral), vehicle: saline 103 % of control | dose: 12.5 mg/kg/injection, schedule: Q01DX Z (oral), vehicle: saline 103 % of control | dose: 25.0 mg/kg/injection, schedule: Q01DX Z (oral), vehicle: saline 97 % of control | dose: 50.0 mg/kg/injection, schedule: Q01DX Z (oral), vehicle: saline 101 % of control | dose: 100.0 mg/kg/injection, schedule: Q01DX Z (oral), vehicle: saline 100 % of control | dose: 200.0 mg/kg/injection, schedule: Q01DX Z (oral), vehicle: saline 100 % of control

CCCC(C)CC(=O)O (centres undefined)
inactive: dose: 100.0 mg/kg/injection, schedule: Q01DX001 (ip), vehicle: saline 102 % of control | dose: 200.0 mg/kg/injection, schedule: Q01DX001 (ip), vehicle: saline 102 % of control | dose: 400.0 mg/kg/injection, schedule: Q01DX001 (ip), vehicle: saline 98 % of control

CCOC(=O)c1cc(C)nc2ccc(Br)cc12
inactive: dose: 100.0 mg/kg/injection, schedule: Q04DX002 (ip), vehicle: saline with Tween-80 97 % of control | dose: 200.0 mg/kg/injection, schedule: Q04DX002 (ip), vehicle: saline with Tween-80 108 % of control | dose: 400.0 mg/kg/injection, schedule: Q04DX002 (ip), vehicle: saline with Tween-80 97 % of control

CCCCC(=O)N(C(C)C)C(C)C
inactive: dose: 50.0 mg/kg/injection, schedule: Q01DX009 (ip), vehicle: carboxymethylcellulose (CMC) 94 % of control and 103 % of control | [1] 97 % of control and 102 % of control | dose: 100.0 mg/kg/injection, schedule: Q04DX002 (ip), vehicle: carboxymethylcellulose (CMC) 95 % of control and 98 % of control | dose: 200.0 mg/kg/injection, schedule: Q04DX002 (ip), vehicle: carboxymethylcellulose (CMC) 95 % of control

CCCCCCCCCCCCCCCCCC[P+](CCCC)(CCCC)CCCC
inactive: dose: 0.75 mg/kg/injection, schedule: Q04DX002 (ip), vehicle: saline with Tween-80 110 % of control | dose: 1.5 mg/kg/injection, schedule: Q04DX002 (ip), vehicle: saline with Tween-80 90 % of control | dose: 3.0 mg/kg/injection, schedule: Q04DX002 (ip), vehicle: saline with Tween-80 100 % of control | dose: 3.12 mg/kg/injection, schedule: Q04DX002 (ip), vehicle: saline with Tween-80 87 % of control | dose: 6.25 mg/kg/injection, schedule: Q04DX002 (ip), vehicle: saline with Tween-80 94 % of control

CCOC(CCc1cnc[nH]c1=O)OCC
inactive: dose: 100.0 mg/kg/injection, schedule: Q04DX003 (ip), vehicle: saline 106 % of control | dose: 200.0 mg/kg/injection, schedule: Q04DX003 (ip), vehicle: saline 97 % of control | dose: 400.0 mg/kg/injection, schedule: Q04DX003 (ip), vehicle: saline 93 % of control

Cc1cnc(NC(N)=O)nc1-c1ccccc1O
inactive: dose: 100.0 mg/kg/injection, schedule: Q04DX002 (ip), vehicle: Klucel (hydroxypropylcellulose) (HPC) 95 % of control | dose: 200.0 mg/kg/injection, schedule: Q04DX002 (ip), vehicle: Klucel (hydroxypropylcellulose) (HPC) 91 % of control | dose: 400.0 mg/kg/injection, schedule: Q04DX002 (ip), vehicle: Klucel (hydroxypropylcellulose) (HPC) 87 % of control
